Test results as given in patent publication US5741487A, “Mutanase-containing oral compositions” (priority 1996, dated 1998).
“Also recorded” adds a separate entry of the source. Like-named read-outs stand apart in the source and are kept apart here.

How the values were obtained:
Assay type in all cases: biochemical
[1] = test system: Mutanase A (RM1 enzyme) from Bacillus sp. RM1 (FERM P-14836)
Experimental: (§1) To 100 μl of a 0.1M acetic acid buffer containing 3% mutan (pH 5) was added 100 μl of the mutanase solution. The mixture was incubated at 35° C. for 10 minutes with shaking at 100 strokes/min. Reaction was terminated by adding 0.4 ml of a 4,6-dinitrosalicylic acid (DNS) solution. The reaction mixture was centrifuged and 0.5 ml of the supernatant was transferred into a test tube. The tube was capped with a glass ball and kept in boiling water for 10 minutes. The tube was cooled with water for 5 minutes. Then 4 ml of distilled water was added and optical absorbance measured at 530 nm. A titer was determined using glucose as standard. The amount of enzyme which releases 1 μg of reducing sugar per minute is defined as one unit. It is noted that the enzymatic activity referred to below in conjunction with any of physicochemical properties is measured by this method.
(§2) Mutanase according to the invention was added to a 50 mM acetic acid buffer (pH 5) in an amount of 50 units/ml. Various inhibitors were individually added thereto in a final concentration of 1 mM. The solution was incubated at 35° C. for 30 minutes. The relative activity is expressed based on the assumption that the enzymatic activity of an inhibitor-free sample is 100%.

[2] = test system: Mutanase B (RM4 enzyme) from Bacillus sp. RM4 (FERM P-14837)
Experimental: as §1, §2

[3] = test system: Mutanase C (M7 enzyme) from Bacillus sp. M7 (FERM P-14835)
Experimental: as §1, §2

[4] = inhibitor final concentration 1 mM, 50 mM acetic acid buffer pH 5, 35° C., 30 minutes, inhibitor-free sample = 100%
[5] = mutan substrate, 1 mM inhibitor

With `O=C(O)CN(CCN(CC(=O)O)CC(=O)O)CC(=O)O` [2Na-EDTA] the “Relative activity (%) Mutanase A” value ([1]; pH 5) was 93%, the “Relative activity (%) Mutanase B” value ([2]; pH 5) was 99% and the “Relative activity (%) Mutanase C” value ([3]; pH 5) was 79%.

With `O=C(O)CI` [Iodoacetic acid] the “Relative activity (%) Mutanase A” value ([1]; pH 5) was 100%, the “Relative activity (%) Mutanase B” value ([2]; pH 5) was 99% and the “Relative activity (%) Mutanase C” value ([3]; pH 5) was 87%.

With `CCN1C(=O)C=CC1=O` [N-ethylmaleimide] the “Relative activity (%) Mutanase A” value [1, 4] was 100%, the “Relative activity (%) Mutanase B” value [2, 4] was 98% and the “Relative activity (%) Mutanase C” value [3, 4] was 94%.

For `O=C(O)c1cc[c]([Hg][Cl])cc1` [PCMB, p-chloromercurybenzoic acid], the “Relative activity (%) Mutanase A” value [1, 4] was 6%, the “effect of inhibitors on mutanase A (in words)” value [1, 5] was “shows inhibitory effect; also recorded: strongly inhibits” and the “Relative activity (%) Mutanase B” value [2, 4] was 14%. The “effect of inhibitors on mutanase B (in words)” value [2, 5] was “shows inhibitory effect; also recorded: strongly inhibits”, the “Relative activity (%) Mutanase C” value [3, 4] was 11% and the “effect of inhibitors on mutanase C (in words)” value [3, 5] was “shows inhibitory effect; also recorded: strongly inhibits”.
